The values that follow are results of earlier work, collected in patent US20220023301A1, “METHODS OF TREATING AUTOIMMUNE DISEASES WITH SMALL MOLECULE NF-kB INHIBITORS” (ImmuneTarget, Inc., priority 2020, published 2022).

This data set relates to cuprizone induced neuroinflammation mouse model.

Molecules are shown by their SMILES.

Take `CC(C)[C@]12O[C@H]1[C@@H]1O[C@]13[C@]1(O[C@H]1C[C@H]1C4=C(CC[C@@]13C)C(=O)OC4)[C@@H]2O` [Triptolide]: the “motor function and motor coordination compared to control group” value (0.125 mg/kg administered intraperitoneally daily) was “improves motor function and motor coordination”. Besides, for the setting “0.125 mg/kg dose”, the Bax/Bcl-2 ratio entry is on record as “reduce Bax/Bcl-2 ratio”, the behavioral deficits entry is recorded as “improve behavioral deficits” and the “number of OLGs precursor cells (NG-2+/O4+)” value was “raise the number of OLGs precursor cells”.
